For 20 molecules, inhibition results are on record in patent US20260374782A1, “NEW COMPOUNDS, PROCESSES FOR PREPARING THE SAME AND THEIR USE AS DRUGS” (B&A ONCOMEDICAL, priority 2022, published 2026).

The inhibition is the share of the control response that was lost under treatment.

Molecules are shown by their SMILES.

The assay addresses T1, NKCC1 (Homo sapiens, UniProt P55011).
T1 construct: endogenous in cells; host or cells: native HEK293 cells
T1 sequence (P55011 1-1212): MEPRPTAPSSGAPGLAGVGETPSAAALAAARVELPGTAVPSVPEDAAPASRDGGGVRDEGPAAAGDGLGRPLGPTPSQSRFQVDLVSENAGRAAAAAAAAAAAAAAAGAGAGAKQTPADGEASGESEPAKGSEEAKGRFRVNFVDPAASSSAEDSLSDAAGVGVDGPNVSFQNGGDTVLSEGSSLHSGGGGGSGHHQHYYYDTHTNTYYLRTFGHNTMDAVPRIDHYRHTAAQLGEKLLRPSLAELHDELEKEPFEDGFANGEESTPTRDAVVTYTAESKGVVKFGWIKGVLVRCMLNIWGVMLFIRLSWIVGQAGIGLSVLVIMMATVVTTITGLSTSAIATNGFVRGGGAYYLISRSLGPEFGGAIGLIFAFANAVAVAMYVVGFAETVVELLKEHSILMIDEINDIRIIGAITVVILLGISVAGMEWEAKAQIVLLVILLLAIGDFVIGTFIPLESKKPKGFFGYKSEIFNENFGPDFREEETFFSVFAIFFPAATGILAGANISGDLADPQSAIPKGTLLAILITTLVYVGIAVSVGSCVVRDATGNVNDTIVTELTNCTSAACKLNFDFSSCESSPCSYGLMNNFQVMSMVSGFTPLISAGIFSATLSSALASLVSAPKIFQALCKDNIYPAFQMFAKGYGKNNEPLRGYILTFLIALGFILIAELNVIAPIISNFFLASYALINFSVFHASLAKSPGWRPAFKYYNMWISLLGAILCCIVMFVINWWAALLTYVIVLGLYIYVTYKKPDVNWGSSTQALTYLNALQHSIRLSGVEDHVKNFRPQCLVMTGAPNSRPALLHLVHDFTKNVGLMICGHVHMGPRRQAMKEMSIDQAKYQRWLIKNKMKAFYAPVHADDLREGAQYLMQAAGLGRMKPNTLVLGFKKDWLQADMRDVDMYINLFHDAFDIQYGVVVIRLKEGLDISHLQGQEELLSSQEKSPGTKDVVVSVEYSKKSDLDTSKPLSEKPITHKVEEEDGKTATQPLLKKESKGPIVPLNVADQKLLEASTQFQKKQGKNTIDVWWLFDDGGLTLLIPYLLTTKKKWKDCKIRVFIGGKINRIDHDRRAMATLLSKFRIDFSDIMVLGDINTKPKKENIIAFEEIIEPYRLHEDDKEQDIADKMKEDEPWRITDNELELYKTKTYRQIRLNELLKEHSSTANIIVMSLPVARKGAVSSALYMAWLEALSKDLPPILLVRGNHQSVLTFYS
Briefly: NKCC1-mediated K+ influx (83Rb tracer uptake) in native HEK293 cells, hypertonic saline, 100 μM ouabain. It is filed as cell-based. Particulars: HEK293, no drug = 1000, 20 μM bumetanide = 0; for inhibition at 2 µM: read-out: NKCC1 mediated flux inhibition at 2 μM (%); for inhibition at 20 µM: read-out: NKCC1 mediated flux inhibition at 20 μM (%). An excerpt:
The compounds of the invention have been tested for evaluating their potency in inhibiting the NKCC1 channel. The test used is a cellular assay expressing the NKCC1 channel: HEK293 cells are human cells derived from embryonic kidney. The inhibitory activity of the compounds has been evaluated in measuring the modification of the potassium flux at 2 concentrations, as described hereafter in the biological protocol.
HEK293 cells are human cells derived from embryonic kidney. They express at their plasma membranes proteins that transport potassium (K^+). Among these proteins is the Na—K-2Cl cotransporter or NKCC1. This transporter contributes to 40-50% of K^+ influx into the cells. The remaining of K^+ transport is mediated by the Na^+/K^+-ATPase (also known as Na^+ pump or Na^+/K^+ pump), which also contributes some 40-50% of the influx basal flux of 5-10%, which is mainly due to K^+ channels (FIG. 1A). Thus, the HEK293 cell in culture is an ideal model to study the function of NKCC1 and test compounds that inhibits its transport.
The assay to measure NKCC1 function was optimized to obtain the next signal to noise ratio: • a. A slightly hypertonic saline was used to stimulate NKCC1 function. […] By consistent use of this simple manipulation, the NKCC1 signal was enhanced. • b. Ouabain, an inhibitor of the Na^+/K^+ pump, was used at 100 μM. […] A radioactive isotope was used to trace the inward movement of K^+ into the cell (influx). This allowed for highly precise measurements of K^+ influx. Because radioactive isotopes of K^+ had very short half-lives, radioactive isotopes of Rb^+ were used. Rubidium was a monovalent cation which was readily transporter at the K^+ binding site by many transporters and channels. Rb^+ was a congener of K^+, being transported undistinguishably from K^+. ^83Rb (half-life of 83 days) was used since ^86Rb (half-life of 19.6 days) is no longer commercially available. The ^83Rb isotope was used as a tracer, i.e. at a very low amounts to trace the movement of K^+.
K^+ influx measured in native HEK293 was in the range of 7000-9000 pmoles K^+ per mg protein per min. In the presence of 20 μM Ref 1, the flux was reduced to 600-900 pmoles K^+ per mg protein per min. Thus, there was a very solid dynamic range. In each experiment, the flux without Ref 1 was set at 1000 (equivalent to 100.0%) and the flux with 20 μM bumetanide was set at 0 (equivalent to 0%).
For the flux experiments, 35-mm culture dishes were coated with 0.1 mg/mL poly-L-lysine and placed in large 20×20 [square] dishes. For convenience, the poly-L-lysine was placed in the dishes the day before the experiment. Before plating the cells, the poly-L-lysine was aspirated, and each dish washed twice with 1 mL sterile water. Cells from 3 confluent 10-cm dishes were detached with trypsin and resuspended into 49 mL complete medium. Cells (2 mL/35-mm dish) were plated in 24 dishes and allowed to attach for at least 2 hours prior to the flux. This setup allowed the measurement of 8 conditions in triplicates. For the flux, culture medium was aspirated and replaced with 1 mL saline for a preincubation period of 15 min. The saline was aspirated and replaced with 1 mL identical saline containing 0.25 μCi/mL 83Rb for 15 min. Following the uptake period, the radioactive solution was aspirated, and the cells washed 3 times with ice-cold saline. Cells were then lyzed with 500 μl 0.25N NaOH for 1 hour, neutralized with 250 μL glacial acetic acid and 300 μL and 30 μL aliquots were used for μ-scintillation counting and protein assays, respectively. Two 5 μL of each flux solution was used to determine cpm and relate those cpm to nmoles K^+. Potassium influx was expressed in nmoles K^+ per mg protein per min. Note that within an experiment, groups of 3 dishes were separated 2 min apart for easy handling. Also note that since all dishes were plated with a homogeneous cell suspension, and all dishes were identical, the protein content was measured from a subset of dishes. […]

As to `CCCCNc1cc(C(=O)OC)cc(S(=N)(=O)N2Cc3ccccc3C2)c1Oc1ccccc1` (centres unmarked) [Compound 24, methyl 3-(butylamino)-5-(isoindolin-2-ylsulfonimidoyl)-4-phenoxy-benzoate], the inhibition at 2 µM fell in the range of 10 to 30% and the inhibition at 20 µM lay in the range of 30 to 50%.

Turning to `CCCCNc1cc(C(=O)OC)cc(S(=N)(N)=O)c1Oc1ccccc1` (centres unmarked) [Compound 25, methyl 3-(aminosulfonimidoyl)-5-(butylamino)-4-phenoxy-benzoate], the inhibition at 2 µM fell in the range of 30 to 50% and the inhibition at 20 µM lay within 30 to 50%. `CCCCNc1cc(C(=O)OC)cc(S(=N)(=O)Nc2ccccc2Cl)c1Oc1ccccc1` (centres unmarked) [Compound 26, methyl 3-(butylamino)-5-[(2-chloroanilino)sulfonimidoyl]-4-phenoxy-benzoate]: the inhibition at 20 µM lay in the range of 10 to 30%.

Regarding `CCCCNc1cc(C(=O)OC)cc(S(=N)(=O)Nc2ccc(Cl)cc2)c1Oc1ccccc1` (centres unmarked) [Compound 27, methyl 3-(butylamino)-5-[(4-chloroanilino)sulfonimidoyl]-4-phenoxy-benzoate], the inhibition at 20 µM was 10 to 30%.

Turning to `CCCCNc1cc(C(=O)OC)cc(S(=N)(=O)Nc2cccc(OC(F)F)c2)c1Oc1ccccc1` (centres unmarked) [Compound 28, methyl 3-(butylamino)-5-[[3-(difluoromethoxy)anilino]sulfonimidoyl]-4-phenoxy-benzoate], the inhibition at 20 µM is 30 to 50%. As to `CCCCNc1cc(C(=O)OC)cc(S(=N)(=O)NC2CCOCC2)c1Oc1ccccc1` (centres unmarked) [Compound 29, methyl 3-(butylamino)-4-phenoxy-5-[(tetrahydropyran-4-ylamino)sulfonimidoyl]benzoate], the inhibition at 20 µM was in the range of 10 to 30%. The same measure, in the same setting: the same measure for `CCCCNc1cc(C(=O)OC)cc(S(=N)(=O)NC2CCN(C)CC2)c1Oc1ccccc1` (centres unmarked) [Compound 30, methyl 3-(butylamino)-5-[[(1-methyl-4-piperidyl)amino]sulfonimidoyl]-4-phenoxy-benzoate]: 30 to 50%. Still for that read-out and setting: the same measure for `CCCCNc1cc(C(=O)OC)cc(S(=N)(=O)Nc2ncccn2)c1Oc1ccccc1` (centres unmarked) [Compound 31, methyl 3-(butylamino)-4-phenoxy-5-[(pyrimidin-2-ylamino)sulfonimidoyl]benzoate]: 10 to 30%; for `CCCCNc1cc(C(=O)OC)cc(S(=N)(=O)NCCc2ccccc2)c1Oc1ccccc1` (centres unmarked) [Compound 34, methyl 3-(butylamino)-4-phenoxy-5-[(2-phenylethylamino)sulfonimidoyl]benzoate]: 30 to 50%; for `CCCCNc1cc(C(=O)OC)cc(S(=N)(=O)NCCc2cccc(Cl)c2)c1Oc1ccccc1` (centres unmarked) [Compound 35, methyl 3-(butylamino)-5-[[2-(3-chlorophenyl)ethylamino]sulfonimidoyl]-4-phenoxy-benzoate]: 30 to 50%. In the case of `CCCCNc1cc(C(=O)OC)cc(S(=N)(=O)NCc2cccnc2)c1Oc1ccccc1` (centres unmarked) [Compound 36, methyl 3-(butylamino)-4-phenoxy-5-[(3-pyridylmethylamino)sulfonimidoyl]benzoate], the inhibition at 20 µM was in the range of 30 to 50%. In the case of `CCCCNc1cc(C(=O)OC)cc(S(=N)(=O)NCCc2cccnc2)c1Oc1ccccc1` (centres unmarked) [Compound 37, methyl 3-(butylamino)-4-phenoxy-5-[[2-(3-pyridyl)ethylamino]sulfonimidoyl]benzoate], the inhibition at 20 µM lay in the range of 10 to 30%.

For `CCCCNc1cc(C(=O)OC)cc(S(=N)(=O)NCc2nccs2)c1Oc1ccccc1` (centres unmarked) [Compound 38, methyl 3-(butylamino)-4-phenoxy-5-[(thiazol-2-ylmethylamino)sulfonimidoyl]benzoate], the inhibition at 20 µM is 10 to 30%. The same measure, in the same setting: the same measure for `CCCCNc1cc(C(=O)OC)cc(S(=N)(=O)NCCc2nccs2)c1Oc1ccccc1` (centres unmarked) [Compound 39, methyl 3-(butylamino)-4-phenoxy-5-[(2-thiazol-2-ylethylamino)sulfonimidoyl]benzoate]: 10 to 30%. The same measure, in the same setting: the same measure for `CCCCNc1cc(C(=O)OC)cc(S(=N)(=O)Nc2nccn2C)c1Oc1ccccc1` (centres unmarked) [Compound 40, methyl 3-(butylamino)-5-[[(1-methylimidazol-2-yl)amino]sulfonimidoyl]-4-phenoxy-benzoate]: 30 to 50%. Same read-out and setting: the same measure for `CCCCNc1cc(C(=O)OC)cc(S(=N)(=O)Nc2ccccn2)c1Oc1ccccc1` (centres unmarked) [Compound 41, methyl 3-(butylamino)-4-phenoxy-5-[(2-pyridylamino)sulfonimidoyl]benzoate]: 30 to 50%. In the case of `CCCCNc1cc(C(=O)OC)cc(S(=N)(=O)NCc2ccn(C)n2)c1Oc1ccccc1` (centres unmarked) [Compound 42, methyl 3-(butylamino)-5-[[(1-methylpyrazol-3-yl)methylamino]sulfonimidoyl]-4-phenoxy-benzoate], the inhibition at 2 µM is 10 to 30% and the inhibition at 20 µM lay within 10 to 30%.

Consider `CCCCNc1cc(C(=O)OC)cc(S(=N)(=O)Nc2nccs2)c1Oc1ccccc1` (centres unmarked) [Compound 43, methyl 3-(butylamino)-4-phenoxy-5-[(thiazol-2-ylamino)sulfonimidoyl]benzoate], for which the inhibition at 2 µM lay in the range of 30 to 50% and the inhibition at 20 µM was 10 to 30%.

On to `CCCCNc1cc(C(=O)OC)cc(S(=N)(=O)Nc2ccncc2)c1Oc1ccccc1` (centres unmarked) [Compound 44, methyl 3-(butylamino)-4-phenoxy-5-[(4-pyridylamino)sulfonimidoyl]benzoate], for which the inhibition at 2 µM was in the range of 30 to 50% and the inhibition at 20 µM lay in the range of 10 to 30%. Taken in the same sequence, the figures for `CCCCNc1cc(C(=O)OC)cc(S(=N)(=O)Nc2ccnnc2)c1Oc1ccccc1` (centres unmarked) [Compound 45, methyl 3-(butylamino)-4-phenoxy-5-[(pyridazin-4-ylamino)sulfonimidoyl]benzoate] were 30 to 50% and 30 to 50%.
